From paper PMC12377105, “Development of eugenol derivatives with 5-LOX inhibitory activity” (Journal of Enzyme Inhibition and Medicinal Chemistry, 2025)
Several values for one entry are separate records, joined by “and”; a condition that tells them apart may be missing. Identical values can stand only once.

Target: T1, soybean lipoxygenase (model enzyme for 5-LOX) (Glycine max, UniProt P08170)
T1 sequence (P08170 1-839): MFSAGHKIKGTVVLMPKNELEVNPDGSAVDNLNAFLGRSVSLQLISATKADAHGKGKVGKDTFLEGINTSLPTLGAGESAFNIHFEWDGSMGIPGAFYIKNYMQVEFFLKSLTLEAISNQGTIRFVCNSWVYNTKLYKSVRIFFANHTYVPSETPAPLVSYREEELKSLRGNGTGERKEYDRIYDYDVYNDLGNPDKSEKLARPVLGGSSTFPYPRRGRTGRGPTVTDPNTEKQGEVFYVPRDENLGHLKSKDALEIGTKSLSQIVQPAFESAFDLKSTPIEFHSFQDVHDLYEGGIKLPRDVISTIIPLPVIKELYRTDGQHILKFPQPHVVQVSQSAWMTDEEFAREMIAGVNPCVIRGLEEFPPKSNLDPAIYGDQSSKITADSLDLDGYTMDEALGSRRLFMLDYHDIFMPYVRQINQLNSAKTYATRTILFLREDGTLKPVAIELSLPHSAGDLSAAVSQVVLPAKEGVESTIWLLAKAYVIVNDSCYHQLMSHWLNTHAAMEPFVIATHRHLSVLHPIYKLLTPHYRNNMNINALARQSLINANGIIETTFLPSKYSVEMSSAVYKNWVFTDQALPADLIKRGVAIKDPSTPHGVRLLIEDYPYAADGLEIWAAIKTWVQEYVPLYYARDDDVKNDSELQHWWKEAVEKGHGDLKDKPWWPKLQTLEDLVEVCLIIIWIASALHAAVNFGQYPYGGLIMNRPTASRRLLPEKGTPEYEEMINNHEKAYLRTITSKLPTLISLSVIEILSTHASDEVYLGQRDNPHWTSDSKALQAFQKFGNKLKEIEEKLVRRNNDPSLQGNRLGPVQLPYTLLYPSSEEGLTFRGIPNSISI
Test: In vitro 5-LOX inhibition assay (soybean lipoxygenase, oxidation of linoleic acid at 234 nm)
Format: biochemical
Conditions: for IC50: dose-response, concentration range 6.25-100 µM
Method: Soybean lipoxygenase (linoleate 13S-lipoxygenase) is widely accepted as a model enzyme to screen compounds for LOX inhibition due to the high degree of binding site similarity between plant LOXs and animal 5-LOX[20]. LOX inhibition was assessed at room temperature, following the oxidation of linoleic acid to 13-hydroperoxylinoleic acid at 234 nm, according to a described procedure. The assay was performed by adding 20 μL of each eugenol derivative (1.3 mM) dissolved in phosphate buffer, 200 μL of phosphate buffer (pH 9.0) and 20 μL of soybean lipoxygenase solution (100 U). After 5 min of incubation at room temperature, the reaction was initiated by the addition of 20 μL of linoleic acid (4.18 mM in ethanol), absorbance being monitored during 3 min, using a Multiskan GO plate reader (Thermo Fisher Scientific; Waltham, MA, USA). The inhibition of enzyme activity was then calculated by comparing the reaction rate with the control (no compound). Quercetin (50 μM, final concentration) was used as a positive control.

[1] = 100 µM, cell-free preliminary screening

| IC50 | inhibition at 100 µM [1] | Structure (SMILES) | 5-LOX inhibitory activity (in words) [1] |
| --- | --- | --- | --- |
| < 100 µM and 76.2 µM |  | C=CCc1ccc(OCCCC(=O)OCC)c(OC)c1 [4e, ethyl-4-(4-allyl-2-methoxyphenoxy)butanoate] | statistically significant reduction in 5-LOX activity |
| < 100 µM and 36.9 µM |  | COc1cc(CC2CO2)ccc1OCCCOC(C)=O (stereo not drawn) [5d, 3-(2-methoxy-4-(oxiran-2-ylmethyl)phenoxy)propyl acetate] | highly active |
|  |  | COCC(O)Cc1ccc(O)c(OC)c1 (stereo not drawn) [7a] | inactive |
|  | ~30% | CCOCC(O)Cc1ccc(O)c(OC)c1 (stereo not drawn) [7b] |  |
|  |  | COc1cc(CC(O)COc2ccccc2)ccc1O (stereo not drawn) [7f] | inactive |
|  |  | CCCCCCC(C)NCC(O)Cc1ccc(OC)c(O)c1 (stereo not drawn) [8b] | did not show statistically significant inhibition |
|  |  | COc1cc(CC(O)CN2CCCCC2)ccc1O (stereo not drawn) [8c] | did not show statistically significant inhibition |
|  |  | COc1cc(CC(O)CN(C)c2ccccc2)ccc1O (stereo not drawn) [8d] | statistically significant activity |
|  |  | COc1cc(CC(O)CNc2ccccc2)ccc1O (stereo not drawn) [8e] | did not show statistically significant inhibition |
|  |  | COc1cc(CC(O)CNc2ccc(C#N)cc2)ccc1O (stereo not drawn) [8f] | did not show statistically significant inhibition |
|  |  | COc1ccc(NCC(O)Cc2ccc(O)c(OC)c2)cc1 (stereo not drawn) [8g] | statistically significant activity |
|  |  | COc1cccc(NCC(O)Cc2ccc(O)c(OC)c2)c1 (stereo not drawn) [8h] | statistically significant activity |
|  |  | COc1cc(CC(O)CNc2cccc(Br)c2)ccc1O (stereo not drawn) [8i] | did not show statistically significant inhibition |
|  |  | COc1cc(CC(O)C[N+](=O)[O-])ccc1O (stereo not drawn) [9a] | did not show statistically significant inhibition |
| < 100 µM and 34 µM |  | C=CCc1ccc(O)c(O)c1 [compound 2, 4-allylbenzene-1,2-diol] | promising activity |
|  |  | COc1cc(CC2CO2)ccc1O (stereo not drawn) [compound 6, 2-methoxy-4-(oxiran-2-ylmethyl)phenol] | did not show inhibitory activity |

| Structure (SMILES) | IC50 | inhibition at 100 µM [1] | 5-LOX inhibitory activity (in words) [1] |
| --- | --- | --- | --- |
| COc1cc(CC(O)COC(C)(C)C)ccc1O (stereo not drawn) [7c, 4-(3-(tert-butoxy)-2-hydroxypropyl)-2-methoxyphenol] | < 100 µM and 33.8 µM |  | almost full inhibition |
